This is an account of results in ChEMBL document CHEMBL1154275, “Synthesis and biological evaluation of new heterocyclic quinolinones as anti-parasite and anti-HIV drug candidates” (Bioorg Med Chem Lett, 2009).

For data set [1], the system named is Leishmania donovani. Description: Antileishmanial activity against Leishmania donovani MHOM/IN/78/80/DD8 amastigote by alamar blue method. The data set is classed as functional, organism-based. On the technique in general: The colour change of resazurin is a common sign of viable cells or microbes.
The subject of another data set is THP-1. The data set can be described thus: Cytotoxicity against human THP1 cells after 72 hrs by propidium iodide staining-based flow cytometry. The data set is classed as cell-based. Background: Flow cytometry measures light scatter and fluorescence of single cells or particles in a stream.
Data set [2] relates to Leishmania donovani. The data set can be described thus: Antileishmanial activity against Leishmania donovani MHOM/IN/78/80/DD8 promastigote by alamar blue method. The data set is classed as functional, organism-based.
Data set [3] deals with Human immunodeficiency virus 1. The data set can be described thus: Antiviral activity against HIV1 3B infected in human MT4 cells after 4 days by MTT assay. The data set is classed as functional, organism-based.
The subject of a further data set is Trichomonas vaginalis. Description: Antitrichomonal activity against Trichomonas vaginalis TVR79 after 48 hrs by optical microscopy. The data set is classed as functional, organism-based.
In another data set the test system is MT4. The data set can be described thus: (§1) Cytotoxicity against human MT4 cells after 4 days by MTT assay. The data set is classed as cell-based. To be noted: mt4, 96 h.
Another data set deals with Plasmodium falciparum. The data set can be described thus: Antimalarial activity against chloroquine, pyrimethamine, proguanil-resistant Plasmodium falciparum infected in human erythrocytes after 48 hrs by flow cytometry. The data set is classed as functional, organism-based.
Data set [4] can be described thus: Selectivity index, ratio of IC50 for human THP1 cells to IC50 for Plasmodium falciparum. The data set is classed as toxicity, cell-based, THP-1.
Data set [5] relates to Human immunodeficiency virus 2. The data set can be described thus: Antiviral activity against HIV2 ROD infected in human MT4 cells after 4 days by MTT assay. The data set is classed as functional, organism-based, ISOLATE ROD.
Data set [6] is described as follows: as §1. The data set is classed as cell-based. The conditions noted are these: MT4 cells.
Where [7] appears, read: Leishmania donovani, MHOM/IN/78/80/DD8, read-out: IC50.
Setting [8] is: Homo sapiens, THP-1, 72 h, read-out: IC50.
Setting [9] is: Human immunodeficiency virus 1, 3B, MT4, 96 h, read-out: EC50.
[10] abbreviates: Trichomonas vaginalis, TVR79, 48 h, read-out: IC50.
Setting [11] is: Plasmodium falciparum, 48 h, read-out: IC50.
Where [12] appears, read: Human immunodeficiency virus 2, ISOLATE ROD, MT4, 96 h, read-out: EC50.

As a reminder, the IC50 is the concentration that inhibits the measured activity by half. As a reminder, the EC50 is the concentration that produces a half-maximal response. What is called CC50 is the concentration at which the toxic effect on the cells reaches its halfway point. High values mean lower toxicity to the cells, low ones greater toxicity to the cells. As to `O=c1cc[nH]c2ccc3[nH]ncc3c12`, the IC50 result in the data set on Leishmania donovani [1], in the data set with THP-1 (thp-1), in the data set with Leishmania donovani [2], with Trichomonas vaginalis and with Plasmodium falciparum was “ND(Insoluble)” in each case. In addition, the half-maximal effective concentration (EC50) result in [3] (mt4) and in data set [5] (mt4) was “ND(Insoluble)” each time. Besides, in the data set with MT4, the CC50 result is listed as “ND(Insoluble)”. Moreover, the selectivity index result in data set [4] (thp-1) is given as “ND(Insoluble)”.
In the case of `O=c1cc[nH]c2ccc3nn[nH]c3c12`, the IC50 entry in the data set with Leishmania donovani [1], in the data set on THP-1 (thp-1), in the data set on Leishmania donovani [2], in the data set with Trichomonas vaginalis and with Plasmodium falciparum was “ND(Insoluble)” throughout. For the same molecule, the EC50 result in [3] (mt4) and in data set [5] (mt4) was “ND(Insoluble)” in each case. Moreover, the CC50 entry in the data set with MT4 was “ND(Insoluble)”. The selectivity index entry in data set [4] (thp-1) is listed as “ND(Insoluble)”.
Regarding `O=c1cc[nH]c2ccc3ncsc3c12`, the IC50 result with Leishmania donovani [1], with THP-1 (thp-1), in the data set with Leishmania donovani [2], in the data set with Trichomonas vaginalis and with Plasmodium falciparum was “ND(Insoluble)” throughout. Moreover, the EC50 entry in data set [3] (mt4) and in data set [5] (mt4) was “ND(Insoluble)” in each case. The cytotoxic concentration (CC50) entry in the data set on MT4 is “ND(Insoluble)”. For the same molecule, the selectivity index entry in [4] (thp-1) is “ND(Insoluble)”.
Regarding `O=c1cc[nH]c2c(-c3nc4ccccc4s3)cccc12`, the IC50 is > 200 µM in the data set on Leishmania donovani [1] (setting [7]); > 500 µM with THP-1 (setting [8]); > 200 µM with Leishmania donovani [2] (setting [7]); > 200 µM in the data set with Trichomonas vaginalis (setting [10]); > 500 µM with Plasmodium falciparum (setting [11]). Also, the EC50 in data set [3] (setting [9]) was > 8.6 µM; in [5] (setting [12]), ≥ 1.4 µM. The midpoint of cytotoxicity in data set [6], the CC50 at 96 h, lay at 8.6 µM. Further, the selectivity index entry in [4] (thp-1) was “Not Active”.
On to `CC1(C)OC(=O)C(CNc2ccc3c(c2)CCC3)C(=O)O1`, for which the IC50 in the data set on Leishmania donovani [1] (setting [7]) is > 200 µM; in the data set with THP-1 (setting [8]), > 500 µM; in the data set on Leishmania donovani [2] (setting [7]) it was > 200 µM; in the data set with Trichomonas vaginalis (setting [10]), > 200 µM; in the data set with Plasmodium falciparum (setting [11]), > 500 µM. The EC50 in [3] (setting [9]) and in [5] (setting [12]) was > 292 µM throughout. In data set [6], the CC50 at 96 h is > 292 µM. For the same molecule, the selectivity index entry in data set [4] (thp-1) was “Not Active”.
Turning to `CC1(C)OC(=O)C(=CNc2ccccc2[N+](=O)[O-])C(=O)O1`, the half-inhibitory concentration (IC50) is > 200 µM in the data set on Leishmania donovani [1] (setting [7]); > 500 µM in the data set with THP-1 (setting [8]); > 200 µM with Leishmania donovani [2] (setting [7]); > 200 µM with Trichomonas vaginalis (setting [10]); > 500 µM in the data set with Plasmodium falciparum (setting [11]). Further, the figures for the EC50 in data set [3] (setting [9]) and in [5] (setting [12]) were > 411 µM and ≥ 260 µM, respectively. In [6], the CC50 at 96 h is ≥ 411 µM. Also, the selectivity index entry in data set [4] (thp-1) was “Not Active”.
For `CC1(C)OC(=O)C(=CNc2ccccc2-c2nc3ccccc3s2)C(=O)O1`, the IC50 in the data set on Leishmania donovani [1] (setting [7]) was > 100 µM; in the data set with THP-1 (setting [8]), > 250 µM; with Leishmania donovani [2] (setting [7]) it was > 250 µM; in the data set on Trichomonas vaginalis (setting [10]), > 250 µM; in the data set with Plasmodium falciparum (setting [11]), > 250 µM. In addition, the EC50 in data set [3] (setting [9]) and in [5] (setting [12]) was > 41.6 µM throughout. In data set [6], the CC50 at 96 h turned out to be 41.6 µM. The selectivity index entry in data set [4] (thp-1) is on record as “Not Active”.
As for `CC1(C)OC(=O)C(=CNc2ccc3c(c2)OCO3)C(=O)O1`, the IC50 is 20 µM with Leishmania donovani [1] (setting [7]); 250 µM in the data set on THP-1 (setting [8]); > 100 µM with Leishmania donovani [2] (setting [7]); > 100 µM in the data set with Trichomonas vaginalis (setting [10]); 10 µM in the data set with Plasmodium falciparum (setting [11]). The EC50 was ≥ 118 µM in [3] (setting [9]) and > 430 µM in [5] (setting [12]). Further, the CC50 at 96 h in data set [6] was > 430 µM. Further, the selectivity index in [4] (human, THP-1 cells) was found to be 25.
Regarding `CC1(C)OC(=O)C(=CNc2cccc([N+](=O)[O-])c2)C(=O)O1`, the IC50 in the data set on Leishmania donovani [1] (setting [7]) was > 100 µM; with THP-1 (setting [8]), > 250 µM; in the data set with Leishmania donovani [2] (setting [7]), > 100 µM; in the data set with Trichomonas vaginalis (setting [10]), > 100 µM; with Plasmodium falciparum (setting [11]), 60 µM. For the same molecule, the EC50 in [3] (setting [9]) and in data set [5] (setting [12]) was > 251 µM each time. For the same molecule, the CC50 at 96 h in data set [6] was > 251 µM. Further, the selectivity index in data set [4] (human, THP-1 cells) was > 4.1.
Regarding `CC1(C)OC(=O)C(=CNc2ccc([N+](=O)[O-])cc2)C(=O)O1`, the IC50 in the data set on Leishmania donovani [1] (setting [7]) was > 100 µM; with THP-1 (setting [8]) it was > 250 µM; in the data set on Leishmania donovani [2] (setting [7]) it was > 100 µM; with Trichomonas vaginalis (setting [10]), > 100 µM; in the data set on Plasmodium falciparum (setting [11]), 40 µM. Also, the EC50 in data set [3] (setting [9]) and in data set [5] (setting [12]) was > 21.2 µM each time. For the same molecule, in data set [6], the CC50 at 96 h is > 21.2 µM. The selectivity index in [4] (human, THP-1 cells) is > 6.2.
